Assay results reported in US4532327A, “Sesbanimide and the use thereof in treating leukemic tumors” (priority 1983, dated 1985).
Like-named read-outs stand apart in the source and are kept apart here.

Tests used:
[1] = system: KB Cell Culture; format: cell-based; conditions: Example 1 fractions, active if ED50 ≤30 μg./ml.
Procedure: Chemotherapeutic Activity. The chemotherapeutic activities of the fractions obtained in the isolation procedure of Example 1 were determined in part by a KB Cell Culture Screen in accordance with the National Cancer Institute Protocol 1.600 [Geran et al., Cancer Chemother, Rep., Part 3, 3(2): 17 (1972)]. […] Such a dose is referred to as ED50 and activity is indicated for ED50 levels of ≤30 μg./ml.

[2] = system: lymphocytic leukemia cells of the strain P388 (PS tumors); experiment: lymphocytic leukemia P388 (PS tumors) implanted in mice (NCI Protocol 1.200); format: in vivo, mice (CDF1); conditions: active if ≥125%
Procedure: As previously mentioned, the fractionation of Example 1 was also guided by assaying the effectiveness of the various fractions against lymphocytic leukemia cells of the strain P388 (PS tumors) implanted in mice. These assays were made according to the National Cancer Institute Protocol 1.200 described in Geran et al., supra, page 9. Starting 24 hr. after the tumor implantation, previously determined dosages of each fraction were injected intraperitoneally once a day for 9 days. Survival time of treated leukemic mice is compared to that of untreated leukemic mice (T/C×100). A T/C value of 100% indicated no activity. A T/C value greater than 100% means that the treated mice are surviving longer than the control mice. A fraction giving a T/C value greater than 125% is indicative of activity as defined by the NCI Protocols, above. Activities of the fractions comprising the pure or substantially pure sesbanimide isolates as reported in Table II establish the utility of the compounds as antileukemic agents.
(§1) ^1 All hosts were type CDF1 mice. Six replicate mice were tested
(§2) ^2 The doses are reported as micrograms per kilogram of host body
(§3) weight per injection. The injection vehicle in all cases was water.
(§4) ^3 T/C = mean survival time of test animals/mean survival time of
(§5) control animals; 125% or above considered active.

[3] = system: lymphoid leukemia L1210; experiment: lymphoid leukemia L1210 in mice (NCI Protocol 1.100); format: in vivo; conditions: female CDF1 mice, active if ≥125%
Procedure: This assay was conducted in accordance with the NCI Protocol 1.100 described in Geran et al., supra, page 7. Starting 24 hr. after the tumor implantation, predetermined doses of the compound were injected intraperitoneally once a day for 9 days.
as §1, §2, §3, §4, §5

[4] = system: lymphocytic leukemia P388 (PS); conditions: attributed in U.S. Pat. No. 4,200,639 (disclaimed); cited from earlier work
[5] = system: KB cell; conditions: attributed in U.S. Pat. No. 4,200,639 (disclaimed); cited from earlier work

C=C1COC(O)(C2OCOC(C3CC(=O)NC(=O)C3)C2O)C1C (stereo not drawn) [Sesbanimide A]
ED50 (dose that inhibits growth to 50% of control growth by 3 days after drug addition) ([1]; listed as K443, 4320 min): 0.0077 µg/mL | T/C ([2]; female CDF1 mice, 2.00 μg./kg./inj. i.p. once a day for 9 days): 119% | T/C ([2]; female CDF1 mice, 4.00 μg./kg./inj. i.p. once a day for 9 days): 119% | T/C ([2]; female CDF1 mice, 8.00 μg./kg./inj. i.p. once a day for 9 days): 140% | T/C ([2]; female CDF1 mice, 16.00 μg./kg./inj. i.p. once a day for 9 days): 149% | T/C ([2]; female CDF1 mice, 32.00 μg./kg./inj. i.p. once a day for 9 days): 181% | T/C ([3]; 16.00 μg./kg./inj. i.p. once a day for 9 days): 116% | T/C ([3]; 32.00 μg./kg./inj. i.p. once a day for 9 days): 135% | T/C ([3]; 64.00 μg./kg./inj. i.p. once a day for 9 days): toxic

C=C1COC(O)(C2OCOC(C3CC(=O)NC(=O)C3)C2O)C1C (stereo not drawn) [Sesbanimide B]
ED50 (dose that inhibits growth to 50% of control growth by 3 days after drug addition) ([1]; listed as K442, 4320 min): 0.068 µg/mL | T/C ([2]; male CDF1 mice, 1.87 μg./kg./inj. i.p. once a day for 9 days): 157% | T/C ([2]; male CDF1 mice, 3.75 μg./kg./inj. i.p. once a day for 9 days): 161% | T/C ([2]; male CDF1 mice, 7.50 μg./kg./inj. i.p. once a day for 9 days): toxic

O=C1NC(=O)[C@@]2(CC[C@@H](O)C2)c2ccncc21 [sesbanine]
apparent activity in the PS tumor system [4]: result of a heretofore unidentified impurity | apparent activity in the KB cell screen [5]: result of a heretofore unidentified impurity
